This note sets out measurements from ChEMBL document CHEMBL1641524, “Synthesis and SAR of novel CXCR4 antagonists that are potent inhibitors of T tropic (X4) HIV-1 replication” (Bioorg Med Chem Lett, 2011).

Data set [1] addresses T1, C-X-C chemokine receptor type 4 (Homo sapiens, UniProt P61073). The experiment in a line: Antagonist activity at CXCR4 in human CEM-CCRF cells expressing CD4 assessed as inhibition of SDF-1-induced Ca2+ signaling. The format is functional, cell-based.
The test system of data set [2] is Human immunodeficiency virus 1. Kind of data set: Antiviral activity against X4 tropic HIV1 NL4.3 infected in human MT4 cells expressing CD4 and CXCR4 assessed as inhibition of virus-induced cytopathicity. Format: functional, organism-based. Conditions: Human immunodeficiency virus 1, NL4.3, MT4. For orientation: Protection from cytopathic effect is a common read-out in antiviral testing.

A short description of data set [3]: Cytotoxicity against human MT4 cells expressing CD4 and CXCR4. The format is cell-based.
Data set [4] deals with Rattus norvegicus. The experiment in a line: (§1) Half life in rat at 10 umol/kg, iv. The format is ADME, organism-based. The following applies: in vivo.
A short description of data set [5]: Volume of distribution in dog at 5 umol/kg, iv. The format is ADME, organism-based, Canis lupus familiaris. Conditions: in vivo.
Data set [6] concerns Human immunodeficiency virus 1. Kind of data set: Antiviral activity against X4 tropic HIV1 infected in human PBMC assessed as inhibition of virus-induced cytopathicity. Format: functional, organism-based.
The next data set relates to Canis familiaris. Kind of data set: (§2) AUC (0 to infinity) in dog at 5 umol/kg, iv. Format: ADME, organism-based, Canis lupus familiaris, Plasma. Conditions: in vivo. Details: dose 5 umol/kg, time infinity, route intravenous.
The target of data set [7] is T1, C-X-C chemokine receptor type 4. Kind of data set: Displacement of [125I]SDF-1 from CXCR4 in human CEM-CCRF cells expressing CD4 by liquid scintillation counting. The format is cell-based. (Loss of bound radioactivity is the signal in a displacement assay; it reports binding, not function.)
For data set [8], the system named is Human immunodeficiency virus 1. The experiment in a line: Antiviral activity against X4 tropic HIV1 infected in human PBMC assessed as inhibition of virus-induced cytopathicity in presence of 1 mg/mL of alpha-acid glycoprotein. The format is functional.
Data set [9] deals with Rattus norvegicus. Kind of data set: (§3) AUC (0 to infinity) in rat at 10 umol/kg, iv. The format is ADME, organism-based, Plasma. Details: dose 10 umol/kg, time infinity, route intravenous. Conditions: in vivo.
The nature of data set [10]: Cmax in dog at 5 umol/kg, iv. Conditions: in vivo. The format is ADME, organism-based, Canis lupus familiaris. The arrangement: dose 5 umol/kg, route intravenous.
Data set [11] in a line: Volume of distribution in rat at 10 umol/kg, iv. The following applies: in vivo. Format: ADME, organism-based.
A short description of data set [12]: Oral bioavailability in dog at 12.5 umol/kg. Format: ADME, organism-based, Canis lupus familiaris. The following applies: in vivo.
For data set [13], the system named is Rattus norvegicus. The experiment in a line: (§4) Cmax in rat at 10 umol/kg, iv. Format: ADME, organism-based. The arrangement: dose 10 umol/kg, route intravenous. Conditions: in vivo.
Data set [14] is described as follows: Half life in dog at 5 umol/kg, iv. The format is ADME, organism-based, Canis lupus familiaris. The following applies: in vivo.
Data set [15] can be described thus: Oral bioavailability in rat at 100 umol/kg. The format is ADME, organism-based. Conditions: in vivo.
A short description of data set [16]: as §1. The format is ADME, organism-based. Conditions: in vivo, 10 umol/kg.
Data set [17] can be described thus: as §3. The following applies: plasma, 10 umol/kg. Format: ADME, organism-based, Plasma. The arrangement: dose 10 umol/kg, time infinity, route intravenous.
Data set [18] is described as follows: Clearance in rat at 10 umol/kg, iv. Format: ADME, organism-based. Conditions: in vivo.
A short description of data set [19]: as §4. The following applies: in vivo, 10 umol/kg. The arrangement: dose 10 umol/kg, route intravenous. The format is ADME, organism-based.
Data set [20] in a line: as §2. Details: dose 5 umol/kg, time infinity, route intravenous. The following applies: plasma, 5 umol/kg. The format is ADME, organism-based, Canis lupus familiaris, Plasma.
Data set [21] is described as follows: Clearance in dog at 5 umol/kg, iv. Format: ADME, organism-based, Canis lupus familiaris. Conditions: in vivo.

T1 sequence (P61073 whole entry): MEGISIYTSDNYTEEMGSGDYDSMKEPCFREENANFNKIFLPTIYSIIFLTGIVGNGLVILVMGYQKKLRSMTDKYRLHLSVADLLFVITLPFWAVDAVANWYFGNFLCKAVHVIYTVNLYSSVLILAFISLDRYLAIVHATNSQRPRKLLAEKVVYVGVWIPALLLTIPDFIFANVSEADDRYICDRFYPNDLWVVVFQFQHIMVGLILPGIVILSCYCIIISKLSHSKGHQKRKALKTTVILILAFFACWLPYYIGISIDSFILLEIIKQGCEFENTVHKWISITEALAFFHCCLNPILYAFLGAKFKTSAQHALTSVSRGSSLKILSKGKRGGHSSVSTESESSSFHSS

For the molecule `NCc1ccccc1CN(Cc1nc2ccccc2[nH]1)C1CCCc2cccnc21` (configuration not stated), the IC50 in [1] worked out at 28 nM.
For the molecule `NCc1cc(F)ccc1CN(Cc1nc2ccccc2[nH]1)C1CCCc2cccnc21` (configuration not stated), the IC50 was 165 nM in [2] and 219 nM in data set [1]. It took 45600 nM to reach half-maximal cytotoxicity in data set [3] (CC50).
Taken in the same sequence, the figures for `NCc1cc(C(F)(F)F)ccc1CN(Cc1nc2ccccc2[nH]1)C1CCCc2cccnc21` (configuration not stated) were 104 nM, 51 nM and 26600 nM.
Taken in the same sequence, the figures for `COc1ccc(CN(Cc2nc3ccccc3[nH]2)C2CCCc3cccnc32)c(CN)c1` (configuration not stated) were 18 nM, 5 nM and 36500 nM.
For `NCc1ccc(CN(Cc2nc3ccccc3[nH]2)C2CCCc3cccnc32)c(CN)c1` (configuration not stated), the figures for the IC50 in data set [2] and in data set [1] were 2 nM and 10 nM, respectively. This molecule came in with a CC50 in data set [3] of 122000 nM.
On the same counts, the results for `NCc1cc(CO)ccc1CN(Cc1nc2ccccc2[nH]1)C1CCCc2cccnc21` (configuration not stated) are 17 nM, 11 nM and 37500 nM.
Taken in the same sequence, the figures for `COCc1ccc(CN(Cc2nc3ccccc3[nH]2)C2CCCc3cccnc32)c(CN)c1` (configuration not stated) were 20 nM, 21 nM and 201000 nM.
Taken in the same sequence, the figures for `NCc1cc(C(=O)O)ccc1CN(Cc1nc2ccccc2[nH]1)C1CCCc2cccnc21` (configuration not stated) were 69 nM, 126 nM and 137000 nM.
As to `COC(=O)c1ccc(CN(Cc2nc3ccccc3[nH]2)C2CCCc3cccnc32)c(CN)c1` (configuration not stated), the figures for the IC50 in data set [2] and in [1] were 105 nM and 39 nM, respectively. The molecule further yielded a half-maximal cytotoxic concentration (CC50) in data set [3] of 42200 nM.
Taken in the same sequence, the figures for `NCc1cc(C(N)=O)ccc1CN(Cc1nc2ccccc2[nH]1)C1CCCc2cccnc21` (configuration not stated) were 12 nM, 15 nM and 120000 nM.
Consider `CO/N=C/c1ccc(CN(Cc2nc3ccccc3[nH]2)C2CCCc3cccnc32)c(CN)c1` (configuration not stated), for which the IC50 stood at 22 nM in [2] and 5 nM in data set [1]. This molecule also registered a CC50 in data set [3] of 26800 nM.
In the data set with Rattus norvegicus [4], `NCc1ncccc1CN(Cc1nc2ccccc2[nH]1)[C@H]1CCCc2cccnc21` registered a t1/2 of 0.8 h. Also, the Vd in [5] was found to be 2.6 L/kg; in data set [11], 6.6 L/kg. In addition, the IC50 turned out to be 9.9 nM in data set [6], 4.2 nM in data set [2] and 19.8 nM in [7]. In addition, the results for the AUC with Canis familiaris and in the data set on Rattus norvegicus [9] were 13.5 µM·h and 5.4 µM·h, respectively. Also, in [8], the “fold change (FC)” value is 24. Besides, the figures for the Cmax (in data set [10]; with Rattus norvegicus [13]) were 4200 nM and 1200 nM, respectively. The values for the bioavailability in data set [12] and in [15] were 84% and 22%, respectively. In data set [14], this molecule showed a half-life of 5.7 h.
For the molecule `NCc1cscc1N(Cc1nc2ccccc2[nH]1)[C@H]1CCCc2cccnc21`, the half-life in data set [16] was 1.7 h; in data set [14], 3.4 h. Moreover, the figures for the Vd in [5] and in data set [11] were 2.2 L/kg and 5.2 L/kg, respectively. Moreover, the figures for the IC50 in data set [6], in [2] and in data set [7] were 2 nM, 0.99 nM and 88.9 nM, respectively. Also, in the data set with Canis familiaris, the AUC came out at 3.7 µM·h. Further, the “fold change (FC)” value in [8] turned out to be 28. Moreover, in data set [17], the AUC(0-inf) was found to be 3.7 µM·h. Also, the Cmax in data set [10] worked out at 2600 nM; in [19], 1400 nM. Also, the bioavailability is 9% in data set [12] and 6% in data set [15]. Also, in data set [18], the clearance came to 27.2 mL/min/kg.
As to `NCc1cocc1N(Cc1nc2ccccc2[nH]1)[C@H]1CCCc2cccnc21`, the half-life in [16] was 2.1 h; in [14], 2.7 h. The results for the Vd in [5] and in data set [11] were 0.7 L/kg and 3.6 L/kg, respectively. Moreover, the IC50 was found to be 4.1 nM in data set [6], 0.31 nM in [2] and 44.5 nM in data set [7]. Also, the AUC(0-inf) in data set [20] was determined as 16.4 µM·h; in [17], 12.5 µM·h. Also, in [8], the “fold change (FC)” value is on record as 17. Besides, the Cmax in [10] amounted to 4700 nM; in [19], 3000 nM. Also, the bioavailability in [12] was 28%; in data set [15], 17%. The clearance in data set [18] is 23.3 mL/min/kg; in data set [21] it was 3.7 mL/min/kg.
With `NCc1ccncc1CN(Cc1nc2ccccc2[nH]1)C1CCCc2cccnc21` (configuration not stated), the IC50 in data set [2] was 124 nM; in [1], 160 nM. In [3], this molecule gave a CC50 of 128000 nM.
`NCc1nccnc1CN(Cc1nc2ccccc2[nH]1)C1CCCc2cccnc21` (configuration not stated): in data set [2], the IC50 was > 1230 nM. In data set [3], this molecule displayed a CC50 of 6100 nM.
As for `NCc1sccc1CN(Cc1nc2ccccc2[nH]1)C1CCCc2cccnc21` (configuration not stated), the results for the IC50 in data set [2] and in data set [1] were 14 nM and 60 nM, respectively. For the same molecule, the midpoint of cytotoxicity in [3], the CC50, lay at 31500 nM.
In the case of `NCc1ccc(CN(Cc2nc3ccccc3[nH]2)C2CCCc3cccnc32)s1` (configuration not stated), the IC50 in data set [2] was found to be 2480 nM. In addition, the CC50 in [3] is 28500 nM.
On the same counts, the results for `NCc1ccc(CN(Cc2nc3ccccc3[nH]2)C2CCCc3cccnc32)o1` (configuration not stated) are 3570 nM and 28500 nM.
In the case of `NCc1ccoc1CN(Cc1nc2ccccc2[nH]1)C1CCCc2cccnc21` (configuration not stated), the IC50 was 0.4 nM in data set [2] and 12 nM in [1]. Besides, in [3], the CC50 amounted to 28500 nM.
On to `NCc1occc1CN(Cc1nc2ccccc2[nH]1)C1CCCc2cccnc21` (configuration not stated), for which the IC50 is 8 nM in [2] and 21 nM in data set [1]. This molecule also had a 50% cytotoxic concentration (CC50) in data set [3] of 50000 nM.
Consider `NCc1[nH]cnc1CN(Cc1nc2ccccc2[nH]1)C1CCCc2cccnc21` (configuration not stated), for which, in data set [2], the IC50 was > 1160 nM. Moreover, the CC50 in [3] amounted to 5800 nM.
Take `NCc1ocnc1CN(Cc1nc2ccccc2[nH]1)C1CCCc2cccnc21` (configuration not stated): in data set [2], the IC50 amounted to 2830 nM. Besides, the CC50 in data set [3] was determined as 32900 nM.
`NCc1ncoc1CN(Cc1nc2ccccc2[nH]1)C1CCCc2cccnc21` (configuration not stated): the IC50 turned out to be 7.2 nM in data set [2] and 1.3 nM in [1]. In addition, in data set [3], it took 64500 nM to reach half-maximal cytotoxicity (CC50).
`NCc1nc(CN(Cc2nc3ccccc3[nH]2)C2CCCc3cccnc32)co1` (configuration not stated): the IC50 in [2] worked out at 20100 nM. In data set [3], the CC50 was 28500 nM.
Take `NCc1ncccc1CN(Cc1nc2ccccc2[nH]1)C1CCCc2cccnc21` (configuration not stated): the IC50 in data set [2] and in [1] was 21 nM each time. Further, in data set [3], the CC50 was 150000 nM.
Take `NCc1cscc1N(Cc1nc2ccccc2[nH]1)C1CCCc2cccnc21` (configuration not stated): the results for the IC50 in data set [2] and in [1] were 103 nM and 13 nM, respectively. The molecule further displayed a CC50 in data set [3] of 32900 nM.
Taken in the same sequence, the figures for `NCc1cocc1N(Cc1nc2ccccc2[nH]1)C1CCCc2cccnc21` (configuration not stated) were 10.9 nM, 25 nM and 30200 nM.

Broadly, the IC50 is the concentration that gives 50% inhibition. Broadly, the CC50 is the concentration at which the toxic effect on the cells reaches its halfway point. The term Vd denotes a proportionality between amount in the body and measured concentration, not a real space. The low end stands for confinement near the circulation, the high end for extensive tissue distribution. What is called AUC is concentration integrated over time. Broadly, the Cmax is the maximum level reached in the sampled fluid or tissue. The bioavailability is the share of a dose that reaches the circulation, judged against a reference dose that is usually intravenous. As usually defined, the half-life is the time needed for the level to fall by half in the phase considered. Higher therefore signals slow loss. Broadly, the AUC(0-inf) is the area under the concentration-time curve extrapolated to infinity. A higher AUC(0-inf) goes with more exposure. As a reminder, the clearance is the rate of elimination divided by the concentration. Low values mean a low capacity for elimination, high ones a high capacity for elimination.
